pIC50: −log10 of the molar value.
System: GM01896 cells (MPS II dermal fibroblasts)
Experiment: Assay 1: MPS cellular assay, MPS II (heparan sulfate disaccharide biomarkers by LC-MS)
Format: cell-based, human
Details: Assay 1 for MPS II, heparan sulfate disaccharide biomarkers (I2a4, I2a6, I2S0 and/or I2S6), read-out: IC50 Range
Summary of the method: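 MPS II patient dermal fibroblasts (GM01896) treated with compound at ≤30 μM for 4 to 21 days. Heparan sulfate GAGs isolated by anion exchange, digested with heparinases I-III, aniline-tagged against [13C6]aniline standards and quantified by LC-MS; IC50 from curve fitting. Viability monitored by alamar blue or ATP.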

| Structure (SMILES) | pIC50 |
| --- | --- |
| CN(C)C(=O)c1ccc(Nc2cc(-c3ccc4cnn(C)c4c3)nc(N3CCOCC3)n2)cc1 [N,N-dimethyl(4-{[6-(1-methyl(1H-indazol-6-yl))-2-morphlin-4-ylpyrimidin-4-yl]amino}phenyl)carboxamide] | 6.00 to 6.30 |

Same assay, conditions: Homo sapiens, Fibroblast, Assay 1 for MPS II, heparan sulfate disaccharide biomarkers (I2a4, I2a6, I2S0 and/or I2S6), read-out: IC50 Range

| Structure (SMILES) | pIC50 |
| --- | --- |
| CNC(=O)c1ccc(Nc2cc(-c3ccc4nc(C)n(C5CCC5)c4c3)nc(N3CCOCC3)n2)cc1 [(4-{[6-(1-cyclobutyl-2-methylbenzimidazol-6-yl)-2-morpholin-4-ylpyrimidin-4-yl]amino}phenyl)-N-methylcarboxamide] | > 6.30 |
| CNC(=O)c1ccc(Nc2cc(-c3ccc4ncn(C5CCC5)c4c3)nc(N3CCOCC3)n2)cc1 [(4-{[6-(1-cyclobutylbenzimidazol-6-yl)-2-morpholin-4-ylpyrimidin-4-yl]amino}phenyl)-N-methylcarboxamide] | > 6.30 |
| CNC(=O)c1ccc(Nc2cc(-c3ccc4c(cnn4C4CC4)c3)nc(N3CCOCC3)n2)cc1 [(4-{[6-(1-cyclopropyl(1H-indazol-5-yl))-2-morpholin-4-ylpyrimidin-4-yl]amino}phenyl)-N-methylcarboxamide] | 5.30 to 6.00 |
| CNC(=O)c1ccc(Nc2cc(-c3ccc4cnn(C5CC5)c4c3)nc(N3CCOCC3)n2)cc1 [(4-{[6-(1-cyclopropyl(1H-indazol-6-yl))-2-morpholin-4-ylpyrimidin-4-yl]amino}phenyl)-N-methylcarboxamide] | > 6.30 |
| CNC(=O)c1ccc(Nc2cc(-c3ccc4nc(C)n(C5CC5)c4c3)nc(N3CCOCC3)n2)cc1 [(4-{[6-(1-cyclopropyl-2-methylbenzimidazol-6-yl)-2-morpholin-4-ylpyrimidin-4-yl]amino}phenyl)-N-methylcarboxamide] | > 6.30 |
| CNC(=O)c1ccc(Nc2cc(-c3ccc4c(c3)ncn4C3CC3)nc(N3CCOCC3)n2)cc1 [(4-{[6-(1-cyclopropylbenzimidazol-5-yl)-2-morpholin-4-ylpyrimidin-4-yl]amino}phenyl)-N-methylcarboxamide] | 6.00 to 6.30 |
| CNC(=O)c1ccc(Nc2cc(-c3ccc4ncn(C5CC5)c4c3)nc(N3CCOCC3)n2)cc1 [(4-{[6-(1-cyclopropylbenzimidazol-6-yl)-2-morpholin-4-ylpyrimidin-4-yl]amino}phenyl)-N-methylcarboxamide] | > 6.30 |
| Cn1ncc2ccc(-c3cc(Nc4ccc(NS(C)(=O)=O)cc4)nc(N4CCOCC4)n3)cc21 [(4-{[6-(1-methyl(1H-indazol-6-yl))-2-morpholin-4-ylpyrimidin-4-yl]amino}phenyl)(methylsulfonyl)amine] | 6.00 to 6.30 |
| Cn1ncc2ccc(-c3cc(Nc4ccc(C(=O)NC5(C)CC5)cc4)nc(N4CCOCC4)n3)cc21 [(4-{[6-(1-methyl(1H-indazol-6-yl))-2-morpholin-4-ylpyrimidin-4-yl]amino}phenyl)-N-(methylcyclopropyl)carboxamide] | 5.30 to 6.00 |
| CC(C)NC(=O)c1ccc(Nc2cc(-c3ccc4cnn(C)c4c3)nc(N3CCOCC3)n2)cc1 [(4-{[6-(1-methyl(1H-indazol-6-yl))-2-morpholin-4-ylpyrimidin-4-yl]amino}phenyl)-N-(methylethyl)carboxamide] | 6.00 to 6.30 |
| Cn1cnc2ccc(-c3cc(Nc4ccc(NS(C)(=O)=O)cc4)nc(N4CCOCC4)n3)cc21 [(4-{[6-(1-methylbenzimidazol-6-yl)-2-morpholin-4-ylpyrimidin-4-yl]amino}phenyl)(methylsulfonyl)amine] | 5.30 to 6.00 |
| CC(C)NC(=O)c1ccc(Nc2cc(-c3ccc4ncn(C)c4c3)nc(N3CCOCC3)n2)cc1 [(4-{[6-(1-methylbenzimidazol-6-yl)-2-morpholin-4-ylpyrimidin-4-yl]amino}phenyl)-N-(methylethyl)carboxamide] | 5.30 to 6.00 |
| CNC(=O)c1ccc(Nc2cc(-c3ccc4cnn(C5CC5)c4c3)nc(N3CCOCC3)n2)cn1 [(5-{[6-(1-cyclopropyl(1H-indazol-6-yl))-2-morpholin-4-ylpyrimidin-4-yl]amino}(2-pyridyl))-N-methylcarboxamide] | > 6.30 |
| CNC(=O)c1ccc(Nc2cc(-c3ccc4ncn(C5CC5)c4c3)nc(N3CCOCC3)n2)cn1 [(5-{[6-(1-cyclopropylbenzimidazol-6-yl)-2-morpholin-4-ylpyrimidin-4-yl]amino}(2-pyridyl))-N-methylcarboxamide] | 6.00 to 6.30 |
| Clc1ccc(Nc2cc(-c3ccc4nc[nH]c4c3)nc(N3CCOCC3)n2)cc1 [(6-benzimidazol-6-yl-2-morpholin-4-ylpyrimidin-4-yl)(4-chlorophenyl)amine] | 6.00 to 6.30 |
| CN(C)c1nn(C)c2cc(-c3cc(Nc4ccc(Cl)cc4)nc(N4CCOCC4)n3)ccc12 [(6-{6-[(4-chlorophenyl)amino]-2-morpholin-4-ylpyrimidin-4-yl}-1-methyl(1H-indazol-3-yl))dimethylamine] | 5.30 to 6.00 |
| Cn1cnc2ccc(-c3cc(Nc4ccc(NC(=O)OC(C)(C)C)cc4)nc(N4CCOCC4)n3)cc21 [(tert-butoxy)-N-(4-{[6-(1-methylbenzimidazol-6-yl)-2-morpholin-4-ylpyrimidin-4-yl]amino}phenyl)carboxamide] | 5.30 to 6.00 |
| Clc1ccc(Nc2cc(-c3cccc4[nH]ncc34)nc(N3CCOCC3)n2)cc1 [N-(4-chlorophenyl)-6-(1H-indazol-4-yl)-2-morpholinopyrimidin-4-amine] | 6.00 to 6.30 |

| Structure (SMILES) | pIC50 |
| --- | --- |
| Clc1ccc(Nc2cc(-c3ccc4[nH]ncc4c3)nc(N3CCOCC3)n2)cc1 [N-(4-chlorophenyl)-6-(1H-indazol-5-yl)-2-morpholinopyrimidin-4-amine] | 5.30 to 6.00 |
| Clc1ccc(Nc2cc(-c3ccc4cn[nH]c4c3)nc(N3CCOCC3)n2)cc1 [N-(4-chlorophenyl)-6-(1H-indazol-6-yl)-2-morpholinopyrimidin-4-amine] | 5.30 to 6.00 |
| CC(=O)Nc1ccc(Nc2cc(-c3ccc4cnn(C)c4c3)nc(N3CCOCC3)n2)cc1 [N-(4-{[6-(1-methyl(1H-indazol-6-yl))-2-morpholin-4-ylpyrimidin-4-yl]amino}phenyl)acetamide] | 6.00 to 6.30 |
| CC(=O)Nc1ccc(Nc2cc(-c3ccc4ncn(C)c4c3)nc(N3CCOCC3)n2)cc1 [N-(4-{[6-(1-methylbenzimidazol-6-yl)-2-morpholin-4-ylpyrimidin-4-yl]amino}phenyl)acetamide] | 6.00 to 6.30 |
| Cn1cnc2ccc(-c3cc(Nc4ccc(C(=O)NCC5CC5)cc4)nc(N4CCOCC4)n3)cc21 [N-(cyclopropylmethyl)(4-{[6-(1-methylbenzimidazol-6-yl)-2-morpholin-4-ylpyrimidin-4-yl]amino}phenyl)carboxamide] | 6.00 to 6.30 |
| Cn1ncc2ccc(-c3cc(Nc4ccc(C(=O)NC5CC5)cc4)nc(N4CCOCC4)n3)cc21 [N-cyclopropyl(4-{[6-(1-methyl(1H-indazol-6-yl))-2-morpholin-4-ylpyrimidin-4-yl]amino}phenyl)carboxamide] | 5.30 to 6.00 |
| Cn1cnc2ccc(-c3cc(Nc4ccc(C(=O)NC5CC5)cc4)nc(N4CCOCC4)n3)cc21 [N-cyclopropyl(4-{[6-(1-methylbenzimidazol-6-yl)-2-morpholin-4-ylpyrimidin-4-yl]amino}phenyl)carboxamide] | 5.30 to 6.00 |
| Cn1cnc2ccc(-c3cc(Nc4ccc(C(=O)NC5CC5)nc4)nc(N4CCOCC4)n3)cc21 [N-cyclopropyl(5-{[6-(1-methylbenzimidazol-6-yl)-2-morpholin-4-ylpyrimidin-4-yl]amino}(2-pyridyl))carboxamide] | 6.00 to 6.30 |
| CCNC(=O)c1ccc(Nc2cc(-c3ccc4cnn(C)c4c3)nc(N3CCOCC3)n2)cc1 [N-ethyl(4-{[6-(1-methyl(1H-indazol-6-yl))-2-morpholin-4-ylpyrimidin-4-yl]amino}phenyl)carboxamide] | 6.00 to 6.30 |
| CCNC(=O)c1ccc(Nc2cc(-c3ccc4ncn(C)c4c3)nc(N3CCOCC3)n2)cc1 [N-ethyl(4-{[6-(1-methylbenzimidazol-6-yl)-2-morpholin-4-ylpyrimidin-4-yl]amino}phenyl)carboxamide] | 5.30 to 6.00 |
| CNC(=O)c1ccc(Nc2cc(-c3ccc4c(cnn4C)c3)nc(N3CCOCC3)n2)cc1 [N-methyl(4-{[6-(1-methyl(1H-indazol-5-yl))-2-morpholin-4-ylpyrimidin-4-yl]amino}phenyl)carboxamide] | 6.00 to 6.30 |
| CNC(=O)c1ccc(Nc2cc(-c3ccc4cnn(C)c4c3)nc(N3CCOCC3)n2)cc1 [N-methyl(4-{[6-(1-methyl(1H-indazol-6-yl))-2-morpholin-4-ylpyrimidin-4-yl]amino}phenyl)carboxamide] | > 6.30 |
| CNC(=O)c1ccc(Nc2cc(-c3ccc4c(c3)ncn4C)nc(N3CCOCC3)n2)cc1 [N-methyl(4-{[6-(1-methylbenzimidazol-5-yl)-2-morpholin-4-ylpyrimidin-4-yl]amino}phenyl)carboxamide] | > 6.30 |
| CNC(=O)c1ccc(Nc2cc(-c3ccc4ncn(C)c4c3)nc(N3CCOCC3)n2)cc1 [N-methyl(4-{[6-(1-methylbenzimidazol-6-yl)-2-morpholin-4-ylpyrimidin-4-yl]amino}phenyl)carboxamide] | > 6.30 |
| CNC(=O)c1ccc(Nc2cc(-c3ccc4c(cnn4C)c3)nc(N3CCOCC3)n2)cn1 [N-methyl(5-{[6-(1-methyl(1H-indazol-5-yl))-2-morpholin-4-ylpyrimidin-4-yl]amino}(2-pyridyl))carboxamide] | 6.00 to 6.30 |
| CNC(=O)c1ccc(Nc2cc(-c3ccc4cnn(C)c4c3)nc(N3CCOCC3)n2)cn1 [N-methyl(5-{[6-(1-methyl(1H-indazol-6-yl))-2-morpholin-4-ylpyrimidin-4-yl]amino}(2-pyridyl))carboxamide] | 6.00 to 6.30 |
| CNC(=O)c1ccc(Nc2cc(-c3ccc4c(c3)ncn4C)nc(N3CCOCC3)n2)cn1 [N-methyl(5-{[6-(1-methylbenzimidazol-5-yl)-2-morpholin-4-ylpyrimidin-4-yl]amino}(2-pyridyl))carboxamide] | 6.00 to 6.30 |
| CNC(=O)c1ccc(Nc2cc(-c3ccc4ncn(C)c4c3)nc(N3CCOCC3)n2)cn1 [N-methyl(5-{[6-(1-methylbenzimidazol-6-yl)-2-morpholin-4-ylpyrimidin-4-yl]amino}(2-pyridyl))carboxamide] | 6.00 to 6.30 |

From US20190151312A1, “HEPARAN SULFATE BIOSYNTHESIS INHIBITORS FOR THE TREATMENT OF DISEASES” (BioMarin Pharmaceutical Inc., priority 2014, published 2019)
